This passage reports TGI results from PubChem BioAssay (NCI).

Test systems include COLO 205 colon; HOP-92 NSCLC; SW-620 colon; RXF 393 renal; UO-31 renal; SF-295 CNS; OVCAR-3 ovarian; MDA-N.
Common to all, as to test: NCI anticancer screen, dose series, 48 h

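Test compounds were applied to cells in 96-well plates for 48 hours at 5 doses. The concentration for full growth arrest is given as TGI.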 Where a SMILES comes first, the peptide text is derived from it. [ ]: non-standard residue; d: D form. Ava = NCCCCC(=O)O; Mpa = O=C(O)CCS

On to `CC(NC(=O)CCS)C(=O)NC(C)C(=O)NC(Cc1c[nH]c2ccccc12)C(=O)NC(Cc1c[nH]cn1)C(=O)NC(CO)C(=O)NC(Cc1c[nH]c2ccccc12)C(=O)NCCCCC(=O)NC(C)C(=O)NC(CCC(N)=O)C(=O)NC(CCCCN)C(=O)NC(C)C(=O)NC(CCCNC(=N)N)C(=O)NC(CCCCN)C(N)=O` (stereo unspecified) ([Mpa]AAWHSW[Ava]AQKARK-NH2; configuration not given here), for which the TGI with COLO 205 colon, with HOP-92 NSCLC, in the assay on SW-620 colon, with RXF 393 renal, with UO-31 renal and in the assay with SF-295 CNS was above 100 µM throughout. Also, the TGI in the assay on OVCAR-3 ovarian and in the assay on MDA-N was above 100 µM throughout.

As for `O=C(NC(=S)Nc1ccc(Br)cc1)c1ccc2c(c1)Sc1ccccc1O2`, the TGI with COLO 205 colon is above 100 µM; with HOP-92 NSCLC, 74.9 µM; with SW-620 colon it was above 100 µM; in the assay on UO-31 renal, above 100 µM; with SF-295 CNS it was above 100 µM; in the assay with OVCAR-3 ovarian it was above 100 µM. Further, in the assay with MDA-N, the TGI was above 100 µM.

As for `CCOC(=O)NC(Nc1ccc(F)cc1F)(C(F)(F)F)C(F)(F)F`, the TGI in the assay with COLO 205 colon, in the assay with HOP-92 NSCLC, in the assay on SW-620 colon, in the assay with RXF 393 renal, in the assay with UO-31 renal and in the assay with SF-295 CNS was above 100 µM in each case. For the same molecule, the TGI with OVCAR-3 ovarian and in the assay on MDA-N was above 100 µM in each case.

As for `CCOC(CBr)OC1C(=O)OCC1(C)C` (stereo unspecified), the TGI in the assay on COLO 205 colon, in the assay on HOP-92 NSCLC, in the assay with SW-620 colon, with RXF 393 renal, with UO-31 renal and in the assay with SF-295 CNS was above 100 µM in each case. The TGI in the assay on MDA-N is above 100 µM.

As to `Nc1cc(CO)cc(Nc2c3ccccc3nc3ccccc23)c1`, the TGI in the assay with COLO 205 colon turned out to be 23.8 µM; in the assay on SW-620 colon it was 26 µM; in the assay with RXF 393 renal, 31.4 µM; with UO-31 renal, 32.3 µM; with SF-295 CNS, 25.3 µM; in the assay with OVCAR-3 ovarian, 32.2 µM. Besides, the TGI with MDA-N was determined as 35.1 µM.

Turning to `Cc1nc2c(Cl)cc(Cl)cc2c2c1CCO2`, the TGI in the assay with COLO 205 colon, in the assay with HOP-92 NSCLC, in the assay on SW-620 colon, in the assay with RXF 393 renal, with UO-31 renal and in the assay on SF-295 CNS was above 100 µM in each case. For the same molecule, in the assay on MDA-N, the TGI is above 100 µM.

Consider `COc1ccc(C2=C(OC(C)=O)c3cccn3-c3ccc(Cl)cc3S2)cc1`, for which the TGI was above 10 µM in the assay with COLO 205 colon; 6.07 µM with HOP-92 NSCLC; above 10 µM in the assay with SW-620 colon; above 10 µM in the assay on RXF 393 renal; above 10 µM in the assay with SF-295 CNS; 4.51 µM in the assay with MDA-N.

Take `CS(=O)(=O)OCCN(CCOS(C)(=O)=O)c1ccc(C=Nc2ccc(-c3csc(Cc4ccccc4)n3)cc2)c(Cl)c1`: the TGI with COLO 205 colon was 36 µM; in the assay with HOP-92 NSCLC, 46.5 µM; in the assay on SW-620 colon, above 100 µM; with RXF 393 renal, 98.6 µM; in the assay with UO-31 renal it was above 85.8 µM; with SF-295 CNS it was above 86.3 µM. For the same molecule, the TGI in the assay on OVCAR-3 ovarian was above 63.7 µM; in the assay with MDA-N it was above 76.3 µM.

With `COc1cc(C[C@@]2(C)[C@@H]3CCC[C@H](CO)[C@@]3(C)CC[C@@H]2C)c(Cl)c(OC)c1`, the TGI with COLO 205 colon was determined as 30.2 µM; in the assay on HOP-92 NSCLC, 30.5 µM; in the assay on SW-620 colon it was 84.6 µM; with RXF 393 renal, 24.7 µM; with UO-31 renal, 31.5 µM; in the assay on SF-295 CNS, 29.9 µM. Further, the TGI was determined as 28.8 µM with OVCAR-3 ovarian and 30.1 µM in the assay with MDA-N.

Regarding `CCCC(=O)OCC1OC(n2cc(F)c(=O)[nH]c2=O)CC1OC(=O)CCC` (stereo unspecified), the TGI with COLO 205 colon, in the assay with HOP-92 NSCLC, in the assay on SW-620 colon, in the assay with RXF 393 renal, with UO-31 renal and in the assay on SF-295 CNS was above 10 µM throughout. Moreover, the TGI in the assay with OVCAR-3 ovarian and in the assay with MDA-N was above 10 µM in each case.

Turning to `COc1ccc(N2C(=O)C3ON(Cc4ccc(CC(N)=O)cc4)C(c4c5ccccc5c(C)c5ccccc45)C3C2=O)cc1` (stereo unspecified), the TGI in the assay on HOP-92 NSCLC was above 100 µM; in the assay with SW-620 colon, above 100 µM; in the assay on RXF 393 renal, 48.8 µM; in the assay on UO-31 renal it was 37.3 µM; with SF-295 CNS, above 100 µM; with OVCAR-3 ovarian, above 100 µM. The TGI in the assay on MDA-N is above 100 µM.

Consider `CCOC(=O)/C(C(N)=O)=C(\O)C(=O)/C=C(\O)c1ccc(Cl)cc1`, for which the TGI with COLO 205 colon was 32.6 µM; with HOP-92 NSCLC, 53.9 µM; in the assay with SW-620 colon it was 50.1 µM; in the assay with RXF 393 renal it was 32.2 µM; in the assay with UO-31 renal it was 33.4 µM; with SF-295 CNS it was above 100 µM. Also, the TGI is 66.4 µM in the assay on OVCAR-3 ovarian and 38.5 µM with MDA-N.

`CCC1c2[nH]c3ccccc3c2C[C@H]2C(=O)NC(C)C(=O)N12` (stereo partly specified): the TGI in the assay with COLO 205 colon, in the assay with HOP-92 NSCLC, in the assay with SW-620 colon, with RXF 393 renal, in the assay with UO-31 renal and with SF-295 CNS was above 100 µM throughout. Moreover, the TGI in the assay with OVCAR-3 ovarian and in the assay on MDA-N was above 100 µM in each case.

Regarding `O=c1c(NCc2ccccc2)c(C2(c3ccccc3F)SCCCS2)c1=O`, the TGI in the assay on COLO 205 colon, in the assay with HOP-92 NSCLC, in the assay on SW-620 colon, in the assay with RXF 393 renal, in the assay with UO-31 renal and in the assay with SF-295 CNS was above 100 µM throughout. In addition, the TGI in the assay on OVCAR-3 ovarian and with MDA-N was above 100 µM in each case.

As for `COc1c(C(=O)/C(=N/Nc2ccc(C(=O)O)cc2)C(C)=O)c(O)cc2occc12`, the TGI in the assay on COLO 205 colon, in the assay with HOP-92 NSCLC, in the assay with SW-620 colon, with RXF 393 renal, in the assay on UO-31 renal and in the assay on SF-295 CNS was above 100 µM throughout. Further, the TGI with OVCAR-3 ovarian and with MDA-N was above 100 µM throughout.

`CC(=O)C1=C(C)N(c2ccccc2)C2(O)C3=C(C(=O)c4ccccc4C3=O)C(O)=CC12Cl` (stereo unspecified): the TGI was above 100 µM with COLO 205 colon; 30 µM in the assay with HOP-92 NSCLC; above 100 µM in the assay on SW-620 colon; 25.6 µM in the assay with RXF 393 renal; 26.7 µM in the assay on UO-31 renal; 40.6 µM in the assay with SF-295 CNS. For the same molecule, the TGI is above 100 µM in the assay on OVCAR-3 ovarian and 6.88 µM in the assay with MDA-N.
